Tests used:
[1] = system: Polistes dominulus worker antennae; experiment: GC-EAD of cherry branch aeration samples
Method: Lapin cherry branches with severely damaged cherries and leaves and undamaged or slightly damaged branches were collected from a cherry orchard at Creston, Canada, on Jul. 29, 2009, and were transported to the Sterling International, Inc. lab (Spokane, Wash.) on the same day and kept at 4° C. before aerations. Headspace volatiles from the cherry branches (damaged or undamaged) were sampled by a battery operated pump and a high density polyacetate oven bag (48.2×59.6 cm Reynolds® Oven Bag; Richmond, Va., USA) enclosure with one activated charcoal filter tube in the air inlet, on Jul. 30, 2009. The volatiles in the enclosure were trapped on one Porapak Q tube (50/80 mesh; 30 mg in Teflon tube: 3 mm×35 mm) for 2.5 hr (airflow 300 ml/min) and extracted with 1 ml redistilled pentane. Aeration samples of the cherry branches (damaged or undamaged/slightly damaged) were injected (3 μl) splitless into a Varian CP-3800 GC equipped with a polar column (HP-INNOWax; 30 m×0.53 mm×1.0 μm film thickness; […] Helium was used as the carrier gas, and the injector and detector temperatures were 250° C. and 300° C., respectively. Column temperature was 50° C. for 1 min, rising to 240° C. at 10° C./min, and then held for 10 min. The outlet for the EAD was held in a humidified air stream flowing at 0.5 m/sec over the antennal preparation. EAD recordings were made using silver wire-glass capillary electrodes filled with Beadle-Ephrussi Ringer on freshly cut antennae. The antennal signals were stored and analyzed on a PC equipped with a serial IDAC interface box and the program EAD ver. 2.5 (Syntech, Hilversum, The Netherlands). […] (See FIG. 2.) The same chemicals were also tested on beneficial insect antennae from Chrysopa oculata, Myrmeleon crudelis, Podisus maculiventris, and Hippodarnia convergens. (See […] active peaks in the aeration samples were identified by GC-MS on an HP 6890 GC series coupled with an HP 5973 Mass Selective Detector using the same type of GC column and conditions as described above. Compounds were identified by comparison of retention times with those of authentic standards and with mass spectra of standards.

[2] = system: P. dominulus workers antennae; experiment: GC-EAD of synthetic mixture of known HIPVs; set-up: species or system Polistes dominulus; details: 100 ng/μl each in hexane
Method: (§1) Aeration samples of the cherry branches (damaged or undamaged/slightly damaged) were injected (3 μl) splitless into a Varian CP-3800 GC equipped with a polar column (HP-INNOWax; 30 m×0.53 mm×1.0 μm film thickness; Agilent Technologies, Wilmington, Del., USA) and a 1:1 effluent splitter that allowed simultaneous flame ionization detection (FID) and electroantennographic detection (EAD) of the European paper wasp (Polistes dominulus) worker antennae to the separated volatile compounds. Helium was used as the carrier gas, and the injector and detector temperatures were 250° C. and 300° C., respectively. Column temperature was 50° C. for 1 min, rising to 240° C. at 10° C./min, and then held for 10 min. The outlet for the EAD was held in a humidified air stream flowing at 0.5 m/sec over the antennal preparation. EAD recordings were made using silver wire-glass capillary electrodes filled with Beadle-Ephrussi Ringer on freshly cut antennae. The antennal signals were stored and analyzed on a PC equipped with a serial IDAC interface box and the program EAD ver. 2.5 (Syntech, Hilversum, The Netherlands). In addition, GC-EAD responses to a synthetic mixture (100 ng/μl each) containing nine known HIPVs including cis-3-hexen-1-ol, cis-3-hexenyl acetate, trans-β-ocimene, (E)-4,8-dimethyl-1,3,7-nonatriene, linalool, methyl salicylate, geranyl acetate, trans-β-caryophyllene and trans-β-farnesene were tested on the P. dominulus workers. (See FIG. 2.) The same chemicals were also tested on beneficial insect antennae from Chrysopa oculata, Myrmeleon crudelis, Podisus maculiventris, and Hippodarnia convergens. (See FIG. 6.) Antennally active peaks in the aeration samples were identified by GC-MS on an HP 6890 GC series coupled with an HP 5973 Mass Selective Detector using the same type of GC column and conditions as described above. Compounds were identified by comparison of retention times with those of authentic standards and with mass spectra of standards.

D. arenaria = experiment: Field trapping Experiment 1, Rescue W•H•Y traps; type: in vivo, Dolichovespula arenaria; details: Exp 1; HIPV added to WHY attractant in the top chamber, or WHY alone
Method: (§2) Three field trapping experiments were carried out during late July to early August 2009, in residential and woody areas around Spokane, Wash., USA, using the newly marketed Rescue® W•H•Y traps (www.rescue.com). As used herein, the W•H•Y trap is a trap in accordance with the description of United States Patent Application Publication No. 2009/0151228. The W•H•Y trap has a top chamber and a bottom chamber. The top chamber is baited with two attractants—one of which is a solid contained in a vial (2-methyl-1-butanol) and the other a liquid mixed with water (acetic acid), herein referred to as the W•H•Y top attractant. The bottom chamber is baited with a liquid attractant (heptyl butyrate) poured onto a cotton pad, herein referred to as the W•H•Y bottom attractant. Separation of the top and bottom attractants (otherwise antagonistic to each other when released from the same chamber) in two chambers was a design feature of this trap and creates two focal attraction sources from one trap for different species of wasps, hornets, and yellowjackets. Traps were hung 1.5-2.0 m above the ground on either the fence or tree branches ca. 5 m apart within each trap line. For each trapping experiment, six sets of traps were deployed with their initial trap positions within each set being randomized. To minimize positional effects and obtain more replications, wasp collections and trap re-randomization were carried out when ≧10-20 wasps were caught in the best trap. Each replicate lasted several days depending on wasp flight activity. Captured wasps were removed from the traps and kept in the zip-bags before taking back to the laboratory for recording of the species, gender status, and catch.
(§3) Experiment 1 (Jul. 22-30, 2009) tested ten synthetic HIPV candidates [(E)-2-hexenal, (Z)-3-hexen-1-ol, (Z)-3-hexenyl acetate, cis-ocimene, linalool, methyl salicylate, geranyl acetate, trans-β-caryophyllene, trans-β-farnesene and (E)-4,8-dimethyl-1,3,7-nonatriene], including several paper wasp EAD-active compounds (see FIG. 2 for details), to determine their potential synergistic effect on the Rescue® W•H•Y trap attractants to paper wasps, yellowjackets, and hornets. Experiment 2 (Aug. 5-13, 2009) tested behavioral responses of the paper wasps and yellowjackets to the Rescue® W•H•Y trap attractants (top attractants only) and its combination with (E)-4,8-dimethyl-1,3,7-nonatriene, one of the EAD-active and behaviorally significant HIPVs, in a dose-response fashion. Experiment 3 (Aug. 5-13, 2009) was conducted to determine the potential behavioral activity of different doses of (E)-4,8-dimethyl-1,3,7-nonatriene alone. The individual (or different doses) HIPVs were loaded into either polyethylene bags or centrifuge tube type of dispensers, and released from the top of the W•H•Y trap chamber. W•H•Y trap attractants (both top and bottom or top only) alone and water (top chamber only) were included in the test as positive and blank controls, respectively. The dispenser types, loading and release rates of the tested semiochemicals are described in Tables 1, 2 and 3.
(§4) Trap catch data were converted to proportion (P) of total captured wasps within each replicate. Data were then transformed by arcsin√P to meet the assumptions of normality and homogeneity of variances for ANOVA. Means were compared by ANOVA followed by the Ryan-Einot-Gabriel-Welsh (REGW) multiple Q test (SPSS 16.0 for Windows) at α=0.05.

V. atropilosa = type: in vivo, Vespula atropilosa; details: Exp 1; HIPV added to WHY attractant in the top chamber, or WHY alone
V. acadica = experiment: Field trapping Experiment 1, Rescue W•H•Y traps; type: in vivo, Vespula acadica; details: Exp 1; HIPV added to WHY attractant in the top chamber, or WHY alone
Method: as §2
(§5) Experiment 3 (Aug. 5-13, 2009) was conducted to determine the potential behavioral activity of different doses of (E)-4,8-dimethyl-1,3,7-nonatriene alone. The individual (or different doses) HIPVs were loaded into either polyethylene bags or centrifuge tube type of dispensers, and released from the top of the W•H•Y trap chamber. W•H•Y trap attractants (both top and bottom or top only) alone and water (top chamber only) were included in the test as positive and blank controls, respectively. The dispenser types, loading and release rates of the tested semiochemicals are described in Tables 1, 2 and 3.
as §4

V. consobrina = type: in vivo, Vespula consobrina; details: Exp 1; HIPV added to WHY attractant in the top chamber, or WHY alone
Method: as §2, with “catch. […]” for “catch.”
as §4

P. aurifer = experiment: Field trapping Experiment 1, Rescue W•H•Y traps; type: in vivo, Polistes aurifer; details: Exp 1; HIPV added to WHY attractant in the top chamber, or WHY alone
Method: as §2, §5, §4

D. maculata = experiment: Field trapping Experiment 1, Rescue W•H•Y traps; type: in vivo, Dolichovespula maculata; details: Exp 1; HIPV added to WHY attractant in the top chamber, or WHY alone
Method: as §2, §3, §4

V. vulgaris = experiment: Field trapping Experiment 1, Rescue W•H•Y traps; type: in vivo, Vespula vulgaris; details: Exp 1; HIPV added to WHY attractant in the top chamber, or WHY alone
Method: as §2, §5, §4

V. pensylvanica = experiment: Field trapping Experiment 1, Rescue W•H•Y traps; type: in vivo, Vespula pensylvanica; details: Exp 1; HIPV added to WHY attractant in the top chamber, or WHY alone
Method: as §2, §5, §4

P. dominulus = experiment: Field trapping Experiment 1, Rescue W•H•Y traps; type: in vivo, Polistes dominulus; details: Exp 1; HIPV added to WHY attractant in the top chamber, or WHY alone
Method: as §2, §5, §4

yellowjackets = experiment: Field trapping Experiment 1, top chamber catches; type: in vivo; details: Exp 1; HIPV combined with W•H•Y attractant (acetic acid and 2-methyl-1-butanol) in the top chamber
Method: as §2
(§6) Experiment 3 (Aug. 5-13, 2009) was conducted to determine the potential behavioral activity of different doses of (E)-4,8-dimethyl-1,3,7-nonatriene alone. The individual (or different doses) HIPVs were loaded into either polyethylene bags or centrifuge tube type of dispensers, and released from the top of the W•H•Y trap chamber. […]

[3] = system: paper wasps and yellowjackets; experiment: Field trapping bioassays, synergism with AA/2MB (summary); type: in vivo; details: at the doses tested
Method: as §2, §6

[4] = system: Hippodarnia convergens antennae; experiment: GC-EAD of synthetic HIPVs on beneficial insect antennae; details: FIG. 6
Method: as §1

[5] = system: Myrmeleon crudelis antennae; experiment: as above; details: FIG. 6
Method: as §1

[6] = system: Podisus maculiventris antennae; experiment: as above; details: FIG. 6
Method: as §1

[7] = system: Chrysopa oculata antennae; experiment: as above; details: FIG. 6
Method: as §1

[8] = aeration of undamaged or slightly damaged cherry branches
[9] = aeration of severely damaged cherry branches, at current release rates

SMILES	EAD response of worker antennae [2]	Total Yellowjacket Catches D. arenaria (D. arenaria)	Total Yellowjacket Catches V. atropilosa (V. atropilosa)	Total Yellowjacket Catches V. acadica (V. acadica)	Total Yellowjacket Catches V. consobrina (V. consobrina)	Total Paper Wasps P. aurifer (P. aurifer)	Total Yellowjacket Catches D. maculata (D. maculata)	Total Yellowjacket Catches V. vulgaris (V. vulgaris)	Total Yellowjacket Catches V. pensylvanica (V. pensylvanica)	Total Paper Wasps P. dominulus (P. dominulus)	EAD response of worker antennae [1, 9]	also measured
CCC/C=C/COC(C)=O [(E)-2-hexenyl acetate]												EAD response of worker antennae [1, 8]: strongly responded
C=C/C=C(/C)CCC=C(C)C [(Z)-4,8-dimethyl-1,3,7-nonatriene]	responded consistently											
CCC/C=C/C=O [E-2-Hexenal, (E)-2-hexenal]		4	3	0	0	8	2	44	423	19		
CC(=O)OC/C=C(\C)CCC=C(C)C [Geranyl Acetate, geranyl acetate]	responded consistently	2	2	0	1	4	1	18	128	13		effect on trap catches of yellowjackets in the top chambers (yellowjackets): inhibitory effect
C=CC(C)(O)CCC=C(C)C (stereo not drawn) [Linalool, linalool]	responded consistently	0	0	0	0	13	1	32	291	46		
CCCCCCCCC=O [nonanal]											repeatable antennal response	EAD response of worker antennae [1, 8]: strongly responded
Cc1ccc(C(C)C)cc1 [p-cymene]											did not elicit significant EAD-responses	
C=C/C(C)=C/C/C=C(\C)CCC=C(C)C [α-farnesene]											did not elicit significant EAD-responses	
C=C/C(C)=C/CC=C(C)C [β-ocimene, trans-β-ocimene]	responded consistently											synergism of attraction to mixture of acetic acid and 2-methyl-1-butanol [3]: significantly synergize; EAD-response [4]: strong EAD-responses; EAD-response [5]: strong EAD-responses; EAD-response [6]: strong EAD-responses; EAD-response [7]: strong EAD-responses

Source: patent US20110165115A1, “SYNERGISTIC ATTRACTANTS FOR PESTIFEROUS SOCIAL INSECTS” (STERLING INTERNATIONAL INC., priority 2010, published 2011)
